Experiments:
[1] = test system: L. major promastigotes; design: method as in PMID 29716183; conditions: 12.5 µM; cited from earlier work
[2] = test system: Li UCM9 promastigotes; assay: Multiplication of Li promastigotes in vitro (CellTiter-Glo, 24 h); type: cell-based, Leishmania infantum; conditions: for inhibition of growth at 120 µM: compared to untreated cultures, mean ± SD, read-out: Reduction (%) of multiplication, L infantum promastigotes
Method: (§1) Growth was estimated by the addition of CellTiter-Glo® (Promega, Madison, WI, USA) (1:1) in 96-well microtiter white plates (Costar, Corning). After 10 min incubation (light protected, room temperature), luminescence was determined with FLUOstar Omega (BMG Labtech) reader. Sensitivity of Ld was similarly performed with promastigotes exposed to 120 μM. Control cultures (medium, untreated promastigotes, promastigotes treated with 0.2 μM AmB) were included. Experiment was carried out in triplicate and results expressed as % of inhibition of untreated control. Approximate IC50 values of the flavonolignans showing the highest inhibitory activity against Li mid-log-phase promastigotes were determined using dose-response curves. […] The compound with the highest activity, DhiS-A, was assayed against Ld promastigotes using the latter dilution series and the same culture conditions as above. For comparative purposes, mid-log promastigotes of Li and Ld were exposed to established anti-Leishmania agents: AmB (0.0078 μ[…] and 1.0 μM); […]

[3] = test system: intracellular amastigotes of Li BCN150; assay: Activity against intracellular amastigotes ex vivo in mouse peritoneal Mφ; type: cell-based, Leishmania infantum; conditions: 24 h
Method: (§2) Antiproliferative activity of flavonolignans against intracellular amastigotes was determined ex vivo using mouse peritoneal Mφ. Infections were carried out following the method and modifications described by us. Briefly, Mφ were seeded onto 8-well cell culture slides (SLP, Lifesciences Co., Pocheon, Korea) in a final volume of 400 µL (2.5 × 10^4 Mφ/well). Plates were incubated overnight at 37 °C under humidified 5% CO2/95% air atmosphere to facilitate adherence. Stationary-phase promastigotes of Ld and Li were centrifuged (370× g, 10 min) without break in a Ficoll (Sigma, Saint Louis, MO, USA) gradient (0%, 10% in Medium 199 and 30% in sterile phosphate-buffered saline). Metacyclic promastigotes, located in the 10–30% Ficoll interphase, were recovered, washed and opsonized in 15% normal mouse serum in 1:1 solution of RPMI and HBSS medium (Gibco, Life Technologies, Paisley, UK), 0.15 mM CaCl2 and 1 mM MgCl2 at 37 °C, 5% CO2 atmosphere for 30 min. Purified metacyclic promastigotes were added to the Mφ cultures using a ratio 4:1 (promastigotes:Mφ) for Li and 10:1 for Ld. Plates were incubated at 33 °C overnight as above. Noninternalized promastigotes were eliminated by repeated washing with fresh medium. Treatments (10 µM) were added to the cultures and kept for 24 h. Slides were methanol-fixed and stained with May–Grünwald Giemsa (Merck) to determine the % of infection and the number of amastigotes/100 Mφ under microscope. Cultures untreated, treated with 0.05% DMSO and treated with 0.1 µM AmB were included as controls. Experiments were done in triplicate and the activity was expressed as % of inhibition compared to untreated cultures.

[4] = test system: Ld promastigotes; assay: Multiplication of Ld promastigotes in vitro (CellTiter-Glo, 24 h); type: cell-based, L. donovani; conditions: Leishmania donovani; for inhibition of growth at 120 µM: compared to untreated cultures, mean ± SD, read-out: Reduction (%) of multiplication, L. donovani promastigotes
Method: as §1

[5] = test system: amastigotes of L. major; design: method as in PMID 29716183; conditions: cited from earlier work
[6] = test system: BALB/c mouse peritoneal macrophages, Mφ; assay: Toxicity of flavonolignans for macrophages (CellTiter-Glo); type: cell-based; conditions: Peritoneal macrophage, 24 h, 28.125 to 900 µM, approximate
Method: Toxicity of flavonolignans for mammalian cells was determined using mouse peritoneal Mφ. Cells obtained were counted and seeded onto 96-well cultures plates (Costar, Corning) at a final concentration of 5 × 10^4 Mφ/well (100 µL/well). Plates were incubated overnight at 37 °C and humidified 5% CO2/95% air to facilitate adherence. Cells were cultured as above for 24 h with different concentrations of the flavonolignans (28.125 µM, 56.25 µM, 112.5 µM, 225 µM, 450 µM and 900 µM). After incubation, cell viability was determined with CellTiter-Glo® as previously described. Untreated and 300 µM AmB-treated control wells were included. Experiments were done in triplicate and approximate IC50 determined.

[7] = test system: Li promastigotes; assay: Drug combination with DhiS-A, Chou-Talalay method (CalcuSyn); type: cell-based, Leishmania infantum; conditions: for DRI of DhiS-A in combination with AmB / Dose Required of DhiS-A in combination with AmB: AmB:DhiS-A 0.01:15; for Dose Required of DhiS-A in combination with AmB / Dose Required of DhiS-A in combination with PMM / Dose Required of DhiS-A in combination with Sb^III: computer-simulated; for DRI of DhiS-A in combination with PMM / Dose Required of DhiS-A in combination with PMM: PMM:DhiS-A 5:1; for DRI of DhiS-A in combination with Sb^III / Dose Required of DhiS-A in combination with Sb^III: Sb^III:DhiS-A 1:1
Method: Fixed-combination ratios of drugs were based on the IC50 values determined for the individual molecules. Mid-log-phase promastigotes of Li were exposed for 24 h at constant ratios of 0.01:15 (AmB:DhiS-A), 1:1 (Sb^III:DhiS-A) and 5:1 (PMM:DhiS-A). Dose–response curves of the combinations were analyzed with the Chou–Talalay method, based on the theorem of combination index (CI)-isobologram and CalcuSyn software. This method allows the evaluation of the type of interaction between two molecules according to mass action law. Results can be used to determine quantitatively the synergy (CI < 1), additive effect (CI = 1) or antagonism (CI > 1) of combinations. Moreover, the program allows the calculation of the drug reduction index (DRI): dose reduction in drug combinations to reach a given inhibition compared to the activity of the individual drugs.

[8] = test system: intracellular amastigotes of Ld; assay: Activity against intracellular amastigotes ex vivo in mouse peritoneal Mφ; type: cell-based, L. donovani; conditions: 24 h
Method: as §2, with “Slides were methanol-fixed and stained with May–Grünwald Giemsa (Merck) to determine the % of infection and the number of amastigotes/100 Mφ under microscope. Cultures untreated, treated with 0.05% DMSO and treated with 0.1 µM AmB were included as controls.” left out

antimoniate of N-methyl glucamine [Sb^V, reference compound]
Reduction of the multiplication of L. major promastigotes [1]: ca. 70%
Sensitivity of Li promastigotes (in words) ([2]; dose-response 3.75-480 µM): insensitive

COc1cc(C2Oc3cc([C@H]4Oc5cc(O)cc(O)c5C(=O)[C@@H]4O)ccc3OC2CO)ccc1O (stereo partly drawn) [Silybin AB, silybin AB]
Antileishmanial activity on intracellular amastigotes (in words) ([3]; 10 µM): no antileishmanial activity was found
inhibition of growth at 120 µM ([2]; Leishmania infantum, 24 h): 5.4 ± 2.02%
Inhibition on Li promastigotes (in words) ([2]; exploratory screening, 0.94 µM up to 120 µM): neither silymarin nor the main component, silybin, elicited any inhibition
inhibition of growth at 120 µM [4]: 37 ± 3.91%
Inhibition of the multiplication of amastigotes of L. major [5]: 53%

COc1cc([C@H]2Oc3ccc(-c4oc5cc(O)cc(O)c5c(=O)c4O)cc3O[C@@H]2CO)ccc1O [Dehydroisosilybin A, dehydroisosilybin A]
Antileishmanial activity on intracellular amastigotes (in words) ([3]; 10 µM): ineffective against amastigotes
Intracellular burdens (amastigotes/100 Mφ) after treatment, Li ([3]; 10 µM): did not show any reduction
Antileishmanial activity on intracellular amastigotes (in words) ([3]; 10 µM, listed as DhiS-A): did not show any antiproliferative activity
Mφ infection (%), Li ([3]; treated with 10 µM, nontreated 50.67 ± 4.62%): 45.67 ± 7.51%
IC50 [6]: ~30 µM
inhibition of growth at 120 µM ([2]; Leishmania infantum, 24 h): 38.3 ± 4.96%
IC50 ([2]; Leishmania infantum, approximate, dose-response curve, 24 h): ~90.2 µM
Emax ([2]; Leishmania infantum, exploratory screening, 0.94 µM up to 120 µM, read-out: Maximal effect (inhibition of growth of control cultures) on Li promastigotes): < 50%
Inhibition of Li promastigote multiplication reached in dose-response curve ([2]; maximal concentration used 480/600 µM): complete inhibition
DRI of DhiS-A in combination with AmB ([7]; ED10): 0.88
Dose Required of DhiS-A in combination with AmB ([7]; ED10): 34.79 µM
DRI of DhiS-A in combination with AmB ([7]; ED25): 1.13
Dose Required of DhiS-A in combination with AmB ([7]; ED25): 44.61 µM
DRI of DhiS-A in combination with AmB ([7]; ED50): 1.47
Dose Required of DhiS-A in combination with AmB ([7]; ED50): 57.21 µM
DRI of DhiS-A in combination with PMM ([7]; ED50): 0.51
Dose Required of DhiS-A in combination with PMM ([7]; ED50): 164 µM
DRI of DhiS-A in combination with Sb^III ([7]; ED50): 1.50
Dose Required of DhiS-A in combination with Sb^III ([7]; ED50): 56 µM
DRI of DhiS-A in combination with AmB ([7]; ED75): 1.90
Dose Required of DhiS-A in combination with AmB ([7]; ED75): 73.36 µM
DRI of DhiS-A in combination with PMM ([7]; ED75): 0.60
Dose Required of DhiS-A in combination with PMM ([7]; ED75): 229 µM
DRI of DhiS-A in combination with Sb^III ([7]; ED75): 0.99
Dose Required of DhiS-A in combination with Sb^III ([7]; ED75): 141.12 µM
DRI of DhiS-A in combination with AmB ([7]; ED90): 2.91
Dose Required of DhiS-A in combination with AmB ([7]; ED90): 94.08 µM
DRI of DhiS-A in combination with PMM ([7]; ED90): 0.72
Dose Required of DhiS-A in combination with PMM ([7]; ED90): 318 µM
DRI of DhiS-A in combination with Sb^III ([7]; ED90): 0.65
Dose Required of DhiS-A in combination with Sb^III ([7]; ED90): 355.63 µM
DRI of DhiS-A in combination with AmB ([7]; ED95): 4.28
Dose Required of DhiS-A in combination with AmB ([7]; ED95): 111.42 µM
DRI of DhiS-A in combination with PMM ([7]; ED95): 0.81
Dose Required of DhiS-A in combination with PMM ([7]; ED95): 399 µM
DRI of DhiS-A in combination with Sb^III ([7]; ED95): 0.49
Dose Required of DhiS-A in combination with Sb^III ([7]; ED95): 666.84 µM
inhibition of growth at 120 µM [4]: 87.6 ± 2.82%
IC50 ([4]; approximate, dose-response curve): ~90.2 µM
Intracellular burdens (amastigotes/100 Mφ) after treatment, Ld ([8]; 10 µM): did not show any reduction
Mφ infection (%), Ld ([8]; treated with 10 µM, nontreated 69.67 ± 8.50%): 67.0 ± 6.08%

— PMC6100512, “In-Vitro Activity of Silybin and Related Flavonolignans against Leishmania infantum and L. donovani” (Molecules : A Journal of Synthetic Chemistry and Natural …, 2018)
